Source: ChEMBL document CHEMBL1201862, “PubChem BioAssay data set” (2004)
Active and inactive are the calls of the source.

Experiments:
[1] = target: T1, Streptokinase A (Streptococcus pyogenes serotype M1, UniProt P10520); experiment: viability-normalized secreted streptokinase activity reduction – plasminogen activation absorbance, OD405, dose response (AID 1914); type: functional, Streptococcus pyogenes M1 GAS;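 note: secreted streptokinase activity via plasminogen activation per viability signal from cell pellet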
T1 sequence (P10520 whole entry): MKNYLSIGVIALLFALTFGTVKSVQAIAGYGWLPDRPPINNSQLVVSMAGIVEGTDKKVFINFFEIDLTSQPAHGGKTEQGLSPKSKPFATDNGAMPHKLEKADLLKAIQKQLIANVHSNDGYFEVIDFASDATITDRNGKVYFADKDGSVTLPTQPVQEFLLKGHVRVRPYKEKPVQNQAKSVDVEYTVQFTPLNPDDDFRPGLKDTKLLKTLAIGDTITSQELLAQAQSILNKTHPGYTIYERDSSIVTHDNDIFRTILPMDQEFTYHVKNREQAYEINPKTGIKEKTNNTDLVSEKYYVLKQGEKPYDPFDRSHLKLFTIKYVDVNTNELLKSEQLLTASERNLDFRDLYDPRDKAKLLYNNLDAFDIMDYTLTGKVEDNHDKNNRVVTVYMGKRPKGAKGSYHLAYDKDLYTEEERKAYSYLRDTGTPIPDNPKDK

[2] = system: Streptococcus sp. 'group A'; experiment: Streptococcus pyogenes SK(-)GAS viability under kanamycin – luminescence, BacTiterGlo, confirmation, counter-screen for streptokinase expression inhibitor project, dose response (AID 1900); type: functional, organism-based
[3] = system: Streptococcus; experiment: GAS UMAA2166 growth inhibition – luminescence, BacTiterGlo, counter-screen for streptokinase expression inhibitor project, dose response (AID 1915); type: functional, organism-based;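 note: potency for reduction of bacterial viability or growth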
[4] = target: Cytochrome P450 2C9 (Homo sapiens, UniProt P11712)
Sequence of Cytochrome P450 2C9 (P11712 whole entry): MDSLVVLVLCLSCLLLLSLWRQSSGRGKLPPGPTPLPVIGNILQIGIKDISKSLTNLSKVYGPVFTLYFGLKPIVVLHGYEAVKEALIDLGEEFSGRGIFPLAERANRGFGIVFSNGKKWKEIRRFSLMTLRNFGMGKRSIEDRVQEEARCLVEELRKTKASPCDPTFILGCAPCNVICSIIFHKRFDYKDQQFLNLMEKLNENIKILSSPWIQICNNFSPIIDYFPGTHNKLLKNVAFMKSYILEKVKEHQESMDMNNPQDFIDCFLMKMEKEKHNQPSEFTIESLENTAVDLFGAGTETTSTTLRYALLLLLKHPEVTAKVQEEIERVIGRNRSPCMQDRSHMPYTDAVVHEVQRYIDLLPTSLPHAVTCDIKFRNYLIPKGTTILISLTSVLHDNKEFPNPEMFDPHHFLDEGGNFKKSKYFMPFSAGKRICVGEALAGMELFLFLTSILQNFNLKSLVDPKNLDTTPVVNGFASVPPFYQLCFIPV

[5] = target: T2, Cytochrome P450 1A2 (Homo sapiens, UniProt P05177);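 note: PubChem cytochrome P450 panel assay, CYP1A2 panel member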
T2 sequence (P05177 whole entry): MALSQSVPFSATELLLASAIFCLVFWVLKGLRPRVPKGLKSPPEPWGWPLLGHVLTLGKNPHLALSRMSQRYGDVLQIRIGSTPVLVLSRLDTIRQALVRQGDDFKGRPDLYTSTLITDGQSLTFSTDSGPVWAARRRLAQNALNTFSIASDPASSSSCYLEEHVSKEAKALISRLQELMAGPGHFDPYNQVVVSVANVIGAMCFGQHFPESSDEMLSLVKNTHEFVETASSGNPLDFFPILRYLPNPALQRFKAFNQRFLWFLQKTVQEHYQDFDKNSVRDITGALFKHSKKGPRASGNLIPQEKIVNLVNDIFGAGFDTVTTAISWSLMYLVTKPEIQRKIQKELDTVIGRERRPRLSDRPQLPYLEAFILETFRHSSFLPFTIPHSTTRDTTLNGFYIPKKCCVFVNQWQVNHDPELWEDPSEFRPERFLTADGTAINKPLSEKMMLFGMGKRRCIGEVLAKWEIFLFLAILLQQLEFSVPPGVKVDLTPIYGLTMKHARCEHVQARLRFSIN

[6] = target: T3, Rac GTPase-activating protein 1 (Homo sapiens, UniProt Q9H0H5); experiment: blockers of MgcRacGAP-driven Rac1 GTP hydrolysis – biochemical, ADP Hunter fluorescence, primary and confirmatory, confirmation (AID 624330); type: functional
T3 sequence (Q9H0H5 whole entry): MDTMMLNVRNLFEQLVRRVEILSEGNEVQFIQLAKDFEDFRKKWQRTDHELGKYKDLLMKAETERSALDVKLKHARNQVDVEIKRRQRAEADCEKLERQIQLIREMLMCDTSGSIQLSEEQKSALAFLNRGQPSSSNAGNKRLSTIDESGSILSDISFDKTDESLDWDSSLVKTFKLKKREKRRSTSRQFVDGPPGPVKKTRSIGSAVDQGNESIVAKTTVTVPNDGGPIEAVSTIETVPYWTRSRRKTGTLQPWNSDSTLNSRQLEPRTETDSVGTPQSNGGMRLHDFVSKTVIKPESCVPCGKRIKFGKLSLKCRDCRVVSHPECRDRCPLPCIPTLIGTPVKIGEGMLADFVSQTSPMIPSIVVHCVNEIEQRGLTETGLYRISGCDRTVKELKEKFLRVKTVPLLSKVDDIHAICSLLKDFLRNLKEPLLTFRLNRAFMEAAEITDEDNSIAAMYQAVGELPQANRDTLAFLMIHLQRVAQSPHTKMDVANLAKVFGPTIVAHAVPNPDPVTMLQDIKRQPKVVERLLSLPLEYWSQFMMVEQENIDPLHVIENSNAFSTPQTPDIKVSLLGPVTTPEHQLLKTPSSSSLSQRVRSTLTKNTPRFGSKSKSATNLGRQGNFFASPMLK

[7] = Luminescence Cell-Based Dose Response HTS to Identify Inhibitors of 5'UTR Stem-Loop Driven Prion Protein mRNA Translation in H4 Neuroglioblastoma Cells. [Related pubchem assays: 1827 (Project Summary), 1813 (Primary HTS)]; type: functional
[8] = alpha-synuclein stem-loop luciferase translation blockers – H4 neuroglioma cells, luminescence, confirmation (AID 1988); type: functional, cell-based
[9] = luciferase reporter signal suppression in cells – H4 neuroglioma cells, luminescence, dose response (AID 1990); type: functional, cell-based
[10] = target: Cytochrome P450 2C19 (Homo sapiens, UniProt P33261); experiment: Cytochrome panel assay with activity outcomes. Panel member name: p450-cyp2c19 Compounds with AC50 equal or less than 10 uM are considered active; type: functional; conditions: read-out: AC50
Sequence of Cytochrome P450 2C19 (P33261 whole entry): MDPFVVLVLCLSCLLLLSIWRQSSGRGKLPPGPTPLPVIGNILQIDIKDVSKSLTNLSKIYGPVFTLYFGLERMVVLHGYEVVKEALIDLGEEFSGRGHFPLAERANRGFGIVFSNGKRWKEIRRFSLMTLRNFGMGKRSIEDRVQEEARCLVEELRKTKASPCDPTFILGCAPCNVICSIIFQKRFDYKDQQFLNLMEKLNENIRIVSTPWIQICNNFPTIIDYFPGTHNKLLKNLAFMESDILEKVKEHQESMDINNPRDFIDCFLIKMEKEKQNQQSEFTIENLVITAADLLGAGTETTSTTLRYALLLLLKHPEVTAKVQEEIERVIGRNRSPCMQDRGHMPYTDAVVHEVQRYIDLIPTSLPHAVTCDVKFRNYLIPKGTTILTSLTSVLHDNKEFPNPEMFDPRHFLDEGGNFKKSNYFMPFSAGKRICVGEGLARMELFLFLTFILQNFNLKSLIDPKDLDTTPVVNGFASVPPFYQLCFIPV

[11] = Trypanosoma cruzi growth suppression in host cells – NIH3T3 host cells, beta-gal luminescence, confirmation (AID 2044); type: functional, cell-based;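 note: intracellular parasites grown in NIH/3T3 mouse fibroblasts as host cells; luminescent beta-galactosidase reporter signal from transgenic T. cruzi replicating inside host cells; inhibitors lower the luminescence signal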
[12] = NIH3T3 cell viability loss – ATP luminescence, mouse fibroblasts, counter-screen, dose response (AID 2010); type: functional, cell-based;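 note: cells exposed to compound for about 90 hours before reading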

CC(C)C[C@H](NC(=O)c1[nH]cnc1C(=O)N1CCc2ccccc2C1)C(=O)OCc1ccccc1
EC50 [1]: > 150 µM (not active)
EC50 [2]: 9.76 µM (active)
EC50 [3]: > 150 µM (not active)

CC(=O)CSc1nnc(Cc2ccc([N+](=O)[O-])cc2)o1
AC50 [4]: 35.5 µM (inconclusive)
AC50 [5]: 15.8 µM (inconclusive)

Cc1ccc(NCc2ccccc2O)cc1C
IC50 [6]: 118 µM (active)

Cc1sc2nc(CN3CCOCC3)nc(N3CCOCC3)c2c1C
IC50 [6]: 191 µM (active)

CC(=O)N(CCC(Cc1ccccc1)c1ccc2c(c1)OCO2)Cc1ccc(Cl)cc1 (centres undefined)
EC50 [1]: 58.5 µM (active)
EC50 [2]: 7.09 µM (active)
EC50 [3]: 12.4 µM (active)

Cc1ccc(-c2cc(C(=O)N3CCN(c4ccccc4O)CC3)c3ccccc3n2)cc1
EC50 [1]: > 150 µM (not active)
EC50 [2]: 5.39 µM (active)
EC50 [3]: 26.4 µM (active)

CN/C(=N/c1cc(Cl)ccc1Cl)SC1CC(=O)N(c2ccc(C(=O)OC)cc2)C1=O (centres undefined)
EC50 [1]: > 50 µM (not active)

Cc1cccc(C(=O)NCC(=O)N2CCOCC2)c1
EC50 [1]: > 150 µM (not active)
EC50 [2]: > 150 µM (not active)
EC50 [3]: > 150 µM (not active)

Cc1[nH]c2ccc(-c3nnc(S)n3Cc3ccccc3)cc2c1C
EC50 [7]: > 120 µM (not active)
EC50 [8]: > 120 µM (not active)
EC50 [9]: > 120 µM (not active)

CCC(CC)NC(=O)c1oc2ccccc2c1COc1ccccc1
EC50 [1]: 10.6 µM (active)
EC50 [2]: 9.43 µM (active)
EC50 [3]: 17 µM (active)

Cc1ccccc1OCC(O)Cn1c(NCc2ccccc2)nc2c1c(=O)[nH]c(=O)n2C (centres undefined)
AC50 [4]: 5.62 µM (inconclusive)

Cc1ccc(Cn2cccc(NC(=O)NC3CCCCC3)c2=O)cc1
AC50 [4]: 2.51 µM (inconclusive)
AC50 [5]: 15.8 µM (inconclusive)

COc1cc(/C=C/CN2CCN(Cc3ccc(C)o3)C(CCO)C2)ccc1O (centres undefined)
IC50 [6]: 363 µM (active)

COc1ccc(OC)c2c(C)c(C)[nH]c12
IC50 [6]: 29.5 µM (active)

CCOc1ccc(S(=O)(=O)N2CCC(C(=O)NCc3ccco3)CC2)cc1C
EC50 [7]: > 120 µM (not active)
EC50 [8]: 37.6 µM (active)
EC50 [9]: 17.5 µM (active)

Cc1cccc(CN2CCN(C(C)C(=O)NC(C)c3ccccc3)CC2)c1 (centres undefined)
IC50 [6]: 84.2 µM (active)

Cc1c(Cl)cccc1N=C(S)N1CCN(S(=O)(=O)c2cccs2)CC1
EC50 [7]: 13.1 µM (active)
EC50 [8]: > 120 µM (not active)
EC50 [9]: > 120 µM (not active)

CS(=O)(=O)Nc1cccc(-c2nc(NCc3cccs3)c3ccccc3n2)c1
AC50 [4]: 1.26 µM (inconclusive)

O=c1c(-c2cc(F)cc(F)c2)nc2cnc(Oc3ccccc3)nc2n1C1CC1
AC50 [4]: 10 µM (inconclusive)

COC(=O)[C@@H]1[C@@H](O)[C@]2(O)c3ccccc3O[C@]2(c2ccccc2)[C@H]1c1ccccc1
AC50 [10]: 0.316 µM (inconclusive)
AC50 [4]: 0.0794 µM (inconclusive)

C=CCc1cc(Cl)ccc1OCCN(C)C
EC50 [11]: 559 nM (active)
IC50 [6]: 157 µM (active)
EC50 [12]: > 30 µM (not active)

CCN(CC)c1ccc(/C=C2/C(=O)NC(=O)N(Cc3ccco3)C2=O)cc1
IC50 [6]: 126 µM (active)

O=C(CN1CCN(c2ccc(O)cc2)CC1)Nc1ccccc1C(=O)NCCc1ccccc1
IC50 [6]: 41.5 µM (active)

Cc1ccc2cc3c(N)c(C(=O)N4CC(=O)Nc5ccccc54)sc3nc2c1
EC50 [8]: < 0.1 µM (active)
EC50 [9]: < 0.1 µM (active)

COc1ccc(N[C@@H]2CCN3C(=O)c4ccccc4[C@@H]3C[C@H]2O)cc1
IC50 [6]: 74.8 µM (active)

Cc1ccc(OC(=O)N2CCOCC2)cc1
AC50 [10]: 28.2 µM (inconclusive)
AC50 [4]: 39.8 µM (inconclusive)
AC50 [5]: 17.8 µM (inconclusive)

O=C(NC(=S)N1CCN(c2ccc(O)cc2)CC1)c1ccco1
IC50 [6]: 33.1 µM (active)

Cc1nc(C/C(=N\N)c2ccc(O)cc2O)cs1
IC50 [6]: 64 µM (active)

Cc1ccc(O)c(/N=C/c2sc3ccccc3c2Cl)c1
IC50 [6]: 39.2 µM (active)

O=C1c2ccccc2NC(c2ccc(O)cc2)N1/N=C/c1ccc(O)cc1 (centres undefined)
IC50 [6]: 66.4 µM (active)
